Source: DBAASP
≈ marks a conversion by molar mass, not a printed value. Where “and” joins values, the source holds several entries; their conditions need not be identical. Equal entries are not always repeated.

Key:
Assay in all cases: ≥ marks a high value that may be exact or a test limit, other limits are often not marked, values filed in µg/mL are converted to µM
[1] = test system: Staphylococcus aureus ATCC 25923
[2] = test system: Bacillus subtilis KCTC 2217
[3] = test system: Acinetobacter baumannii KCTC 2508
[4] = test system: Cutibacterium acnes JCM 6473
[5] = test system: Streptococcus mutans JCM 5705
[6] = test system: Candida albicans NBRC 1385
[7] = test system: Porphyromonas gingivalis ATCC 33277
[8] = test system: Bacillus subtilis 168 HT
[9] = test system: Escherichia coli MG1655
[10] = test system: Escherichia coli NCTC 10418
[11] = test system: Staphylococcus aureus NCTC 10788
[12] = test system: Candida albicans NCPF 1467

MIC [1]	MIC [2]	MIC [3]	MIC [4]	MIC [5]	MIC [6]	MIC [7]	Structure (SMILES)	further results
1.56 µM and > 0.78 µM	1.56 µM (≈ 2.61 µg/mL)	12.5 µM (≈ 20.9 µg/mL)					CC(C)C[C@H](NC(=O)[C@H](CCCCN)NC(=O)[C@H](CCCCN)NC(=O)[C@H](CC(C)C)NC(=O)[C@H](CC(C)C)NC(=O)[C@H](CCCCN)NC(=O)[C@H](CCCCN)NC(=O)[C@H](CC(C)C)NC(=O)[C@H](CC(C)C)NC(=O)[C@@H]1CCCN1C(=O)[C@H](CCCCN)NC(=O)[C@H](CCCCN)NC(=O)[C@H](CC(C)C)NC(=O)[C@@H](N)CC(C)C)C(N)=O [LLKKPLLKKLLKKL]	
			≥ 1020 µM	≥ 1020 µM	≥ 512 µM	≥ 256 µM	CC[C@H](C)[C@H](NC(=O)[C@@H](N)CCCN=C(N)N)C(=O)N[C@@H](CCCN=C(N)N)C(=O)N[C@@H](CC(C)C)C(=O)N[C@@H](CC(C)C)C(=O)N[C@@H](CCC(N)=O)C(=O)N[C@@H](CCCN=C(N)N)C(=O)N[C@@H](Cc1ccccc1)C(=O)N[C@@H](CC(N)=O)C(=O)N[C@@H](CCCCN)C(=O)N[C@@H](CCCN=C(N)N)C(=O)O [RIRLLQRFNKR]	
							CC[C@H](C)[C@H](NC(=O)[C@H](CC(C)C)NC(=O)[C@@H](N)CS)C(=O)N[C@@H](CCSC)C(=O)N[C@@H](CCCCN)C(=O)N[C@H](C(=O)N[C@@H](CCCN=C(N)N)C(=O)N[C@@H](CCCN=C(N)N)C(=O)N[C@@H](CCCCN)C(=O)N[C@@H](CCCCN)C(=O)O)C(C)C [CLIMKVRRKK]	MIC [8]: 12.6 µM (≈ 16.1 µg/mL); MIC [9]: ≥ 100 µM
1.56 µM and > 0.78 µM	1.56 µM (≈ 3.01 µg/mL)	3.13 µM (≈ 6.05 µg/mL)					CC(C)C[C@H](NC(=O)[C@H](CCCCN)NC(=O)[C@H](CCCCN)NC(=O)[C@H](CC(C)C)NC(=O)[C@H](CC(C)C)NC(=O)[C@H](CCCCN)NC(=O)[C@H](CCCCN)NC(=O)[C@H](CC(C)C)NC(=O)[C@H](CC(C)C)NC(=O)[C@@H]1CCCN1C(=O)[C@H](CCCCN)NC(=O)[C@H](CCCCN)NC(=O)[C@H](CC(C)C)NC(=O)[C@H](CC(C)C)NC(=O)[C@H](CCCCN)NC(=O)[C@@H](N)CCCCN)C(N)=O [KKLLKKPLLKKLLKKL]	
							CC[C@H](C)[C@H](NC(=O)[C@H](C)NC(=O)[C@H](CC(N)=O)NC(=O)[C@@H]1CCCN1C(=O)[C@@H](NC(=O)[C@H](CC(C)C)NC(=O)[C@H](CO)NC(=O)[C@H](Cc1ccccc1)NC(=O)[C@H](CC(C)C)NC(=O)[C@@H](N)Cc1ccccc1)[C@@H](C)CC)C(=O)N[C@@H](CO)C(=O)NCC(=O)N[C@@H](CC(C)C)C(=O)N[C@@H](CC(C)C)C(=O)N[C@@H](CO)C(=O)N[C@@H](C)C(=O)N[C@@H](Cc1ccccc1)C(=O)N[C@H](C=O)CCCCN [FLFSLIPNAISGLLSAFK]	MIC [10]: ≥ 250 µM; MIC [11]: 8 µM (≈ 15.4 µg/mL); MIC [12]: 16 µM (≈ 30.8 µg/mL)
			≥ 1020 µM	≥ 1020 µM	≥ 1020 µM	≥ 1020 µM	C[C@@H](O)[C@H](NC(=O)[C@H](CCCCN)NC(=O)[C@H](CCCCN)NC(=O)[C@H](CO)NC(=O)[C@H](CCCN=C(N)N)NC(=O)[C@H](Cc1c[nH]c2ccccc12)NC(=O)[C@H](CCC(=O)O)NC(=O)[C@H](CCCN=C(N)N)NC(=O)[C@H](CO)NC(=O)[C@H](CCCCN)NC(=O)[C@@H](N)CCCN=C(N)N)C(=O)N[C@@H](CCC(N)=O)C(=O)N1CCC[C@H]1C(=O)N[C@@H](CCCN=C(N)N)C(=O)N[C@@H](CCCN=C(N)N)C(=O)N1CCC[C@H]1C(=O)N[C@@H](CCCN=C(N)N)C(=O)O [RKSREWRSKKTQPRRPR]	
